In patent US20030004207A1, “USE OF COMPOUNDS WHICH ACTIVATE A 5-HT RECEPTOR TO TREAT URINARY INCONTINENCE” (priority 1999, published 2003):
Read-outs that look alike come from different tables or passages of the source.

Legend:
[1] = tested on: distension-induced rhythmic contractions of the rat bladder; assay: Distension-induced rhythmic contraction (DIRC) model of the micturition reflex; assay type: in vivo; conditions: for Effect on distension-induced rhythmic contractions of the rat bladder: urethane-anesthetized female rat, 0.1 mg/kg
Experimental: The effects of compounds on the micturition reflex were assessed in the “distension-induced rhythmic contraction” (DIRC) model in rats, as described in previous publications (e.g. Maggi et al., 1987; Morikawa et al., 1992).
Female Sprague Dawley rats weighing approximately 300 g were anesthetized with subcutaneous urethane (1.2 g/kg). The trachea was cannulated with PE240 tubing to provide a clear airway throughout the experiment. A midline abdominal incision was made and the left and right ureters were isolated. The ureters were ligated distally (to prevent escape of fluids from the bladder) and cannulated proximally with PE10 tubing. The incision was closed using 4-0 silk sutures, leaving the PE10 lines routed to the exterior for the elimination of urine. The bladder was cannulated via the transurethral route using PE50 tubing inserted 2.5 cm beyond the urethral opening. This cannula was secured to the tail using tape and connected to a pressure transducer. To prevent leakage from the bladder, the cannula was tied tightly to the exterior urethral opening using 4-0 silk.
To initiate the micturition reflex, the bladder was first emptied by applying pressure to the lower abdomen, and then filled with normal saline in 100 μl increments (maximum=2 ml) until spontaneous bladder contractions occurred (typically 20-40 mmHg at a rate of one contraction every 1 to 2 minutes. Once a regular rhythm was established, vehicle (saline) or 5-HT1F-selective compounds were administered i.p. to explore their effects on bladder activity. In some instances, a compound known to affect the micturition reflex (e.g. the GABAB receptor agonist APMPA [3-aminopropyl-2-methyl-phosphinic acid]) was given as a “positive control”.

human 5-HT1E receptor = biological target: T1, human 5-HT1E receptor (Homo sapiens, UniProt P28566); assay: Radioligand competition binding, human 5-HT1E receptor ([3H]-serotonin); conditions: read-out: Affinity at 5-HT1E (Ki ± SEM)
T1 construct: expressed in transfected cells
Experimental: (§1) The binding of a test compound to a receptor of interest was generally evaluated by competitive binding assays using membrane preparations derived from cells which expressed the receptor. First, conditions were determined which allowed measurement of the specific binding of a compound known to bind to the receptor. Then, the binding of the known compound to the receptor in membrane preparations was evaluated in the presence of several different concentrations of the test compound.
(§2) The binding properties of compounds at different human receptors were determined in vitro using cultured cell lines that selectively express the receptor of interest. These cell lines were prepared by transfecting the cloned cDNA or cloned genomic DNA or constructs containing both genomic DNA and cDNA encoding the human receptors as follows:
(§3) Human 5HT1B, 5HT1D, 5HT1E, 5HT1F, and 5HT7 Receptors:
(§4) The cell lysates of LM(tk-) clonal cell line stably transfected with the genes encoding each of these 5-HT receptor-subtypes were prepared as described above. Cell membranes were suspended in 50 mM Tris-HCl buffer (pH 7.4 at 37° C.) containing 10 mM MgCl2, 0.2 mM EDTA, 10 μM pargyline, and 0.1% ascorbate. The affinities of compounds were determined in equilibrium competition binding assays by incubation for 30 minutes at 37° C. in the presence of 5 nM [^3H]-serotonin. Nonspecific binding was determined in the presence of 10 μM serotonin. The bound radioligand was separated by filtration through GF/B filters using a cell harvester.

human 5-HT1F receptor = biological target: T2, human 5-HT1F receptor (Homo sapiens, UniProt P30939); assay: Radioligand competition binding, human 5-HT1F receptor ([3H]-serotonin); conditions: read-out: Affinity at 5-HT1F (Ki ± SEM)
T2 construct: expressed in transfected cells
T2 sequence (P30939 1-366): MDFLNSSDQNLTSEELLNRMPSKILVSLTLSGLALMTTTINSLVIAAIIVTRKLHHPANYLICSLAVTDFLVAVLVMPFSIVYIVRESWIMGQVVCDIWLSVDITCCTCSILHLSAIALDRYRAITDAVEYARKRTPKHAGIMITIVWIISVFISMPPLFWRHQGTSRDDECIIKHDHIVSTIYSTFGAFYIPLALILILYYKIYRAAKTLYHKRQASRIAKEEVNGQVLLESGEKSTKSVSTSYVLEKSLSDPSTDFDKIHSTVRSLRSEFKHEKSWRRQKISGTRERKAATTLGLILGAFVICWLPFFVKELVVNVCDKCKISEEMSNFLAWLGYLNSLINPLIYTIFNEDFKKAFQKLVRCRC
Experimental: as §1, §2, §3, §4

human 5-HT2A receptor = biological target: T3, human 5-HT2A receptor (Homo sapiens, UniProt P28223); assay: Radioligand competition binding, human 5-HT2A receptor ([3H] ketanserin)
T3 construct: expressed in transfected cells; host or cells: COS-7 (transient, pCEXV-3 vector)
Experimental: as §1, §2
Human 5HT2A Receptor: The coding sequence of the human 5HT2A receptor was obtained from a human brain cortex cDNA library, and cloned into the cloning site of pCEXV-3 eukaryotic expression vector. This construct was transfected into COS-7 cells by the DEAE-dextran method. Cells were harvested after 72 hours and lysed by sonication in 5 mM Tris-HCl, 5 mM EDTA, pH 7.5. […] The affinity of compounds at 5-HT2A receptors were determined in equilibrium competition binding assays using [^3H] ketanserin (1 nM). […]

human 5-HT1D receptor = biological target: T4, human 5-HT1D receptor (Homo sapiens, UniProt P28221); assay: Radioligand competition binding, human 5-HT1D receptor ([3H]-serotonin); conditions: read-out: Affinity at 5-HT1D (Ki ± SEM)
T4 construct: expressed in transfected cells
Experimental: as §1, §2, §3
(§5) The cell lysates of LM(tk-) clonal cell line stably transfected with the genes encoding each of these 5-HT receptor-subtypes were prepared as described above. Cell membranes were suspended in 50 mM Tris-HCl buffer (pH 7.4 at 37° C.) containing 10 mM MgCl2, 0.2 mM EDTA, 10 μM pargyline, and 0.1% ascorbate. […] Nonspecific binding was determined in the presence of 10 μM serotonin. […]

human 5-HT1B receptor = biological target: T5, human 5-HT1B receptor (Homo sapiens, UniProt P28222); assay: Radioligand competition binding, human 5-HT1B receptor ([3H]-serotonin); conditions: read-out: Affinity at 5-HT1B (Ki ± SEM)
T5 construct: expressed in transfected cells
Experimental: as §1, §2, §3, §5

human 5-HT4 receptor = biological target: T6, human 5-HT4 receptor (Homo sapiens, UniProt Q13639); assay: Radioligand binding, human 5-HT4 receptor; conditions: read-out: Affinity at 5-HT4 (Ki ± SEM)
T6 construct: expressed in transfected cells
Experimental: as §1
(§6) Other 5-HT Receptors: The binding assays using 5-HT4 were preformed according to the procedures described in U.S. Pat. No. 5,766,879, the disclosure of which is hereby incorporated by reference in its entirety into this application. Other serotonin receptor binding assays were preformed according to published methods: 5-HT2B: Kursar et al., 1992; 5-HT2C: Saltzman et al., 1991; 5-HT3: Hoyer and Neijt, 1987; 5-HT5A: Plassat et al., 1992; 5-HT5B: Matthes et al., 1993; 5-HT6: Kohen et al., 1996.

human 5-HT2C receptor = biological target: T7, human 5-HT2C receptor (Homo sapiens, UniProt P28335); assay: Radioligand binding, human 5-HT2C receptor
T7 construct: expressed in transfected cells
T7 sequence (P28335 33-458): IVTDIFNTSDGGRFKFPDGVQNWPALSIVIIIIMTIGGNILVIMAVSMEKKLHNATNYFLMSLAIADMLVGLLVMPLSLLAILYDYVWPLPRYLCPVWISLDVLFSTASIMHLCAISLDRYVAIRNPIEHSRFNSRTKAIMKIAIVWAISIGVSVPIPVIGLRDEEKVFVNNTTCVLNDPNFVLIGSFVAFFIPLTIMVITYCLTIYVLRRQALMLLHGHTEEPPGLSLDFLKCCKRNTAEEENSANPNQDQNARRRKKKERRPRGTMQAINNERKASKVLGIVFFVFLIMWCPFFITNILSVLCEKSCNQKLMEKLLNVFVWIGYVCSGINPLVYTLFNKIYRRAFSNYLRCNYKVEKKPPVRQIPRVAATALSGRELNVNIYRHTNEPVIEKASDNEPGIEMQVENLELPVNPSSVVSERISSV
Experimental: as §1, §6

human 5-HT1A receptor = biological target: T8, human 5-HT1A receptor (Homo sapiens, UniProt P08908); assay: Radioligand competition binding, human 5-HT1A receptor (3H-8-OH-DPAT); conditions: read-out: Affinity at 5-HT1A (Ki ± SEM)
T8 construct: expressed in transfected cells; host or cells: COS-7 (transient, pCEXV-3 vector)
T8 sequence (P08908 1-422): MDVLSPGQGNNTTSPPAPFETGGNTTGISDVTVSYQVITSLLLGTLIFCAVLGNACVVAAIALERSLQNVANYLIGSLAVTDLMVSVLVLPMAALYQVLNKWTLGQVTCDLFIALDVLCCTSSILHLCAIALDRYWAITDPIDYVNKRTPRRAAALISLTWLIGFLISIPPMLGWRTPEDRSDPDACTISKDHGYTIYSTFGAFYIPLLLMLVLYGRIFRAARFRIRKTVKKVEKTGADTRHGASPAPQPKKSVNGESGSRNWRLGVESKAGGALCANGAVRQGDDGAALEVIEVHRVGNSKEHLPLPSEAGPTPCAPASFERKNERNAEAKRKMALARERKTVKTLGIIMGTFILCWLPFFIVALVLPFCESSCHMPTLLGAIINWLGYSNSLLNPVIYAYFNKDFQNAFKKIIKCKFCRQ
Experimental: as §1
The binding properties of compounds at different human receptors were determined in vitro using cultured cell lines that selectively express the receptor of interest. […]
Human 5HT2A Receptor: The coding sequence of the human 5HT2A receptor was obtained from a human brain cortex cDNA library, and cloned into the cloning site of pCEXV-3 eukaryotic expression vector. […] The affinity of compounds at 5-HT2A receptors were determined in equilibrium competition binding assays using [^3H] ketanserin (1 nM). […]
5-HT1A Receptor: The cDNA corresponding to the 5-HT1A receptor open reading frames and variable non-coding 5′- and 3′-regions, was cloned into the eukaryotic expression vector pCEXV-3. […] Radioligand binding assays were performed as described above for the 5-HT2A receptor, except that ^3H-8-OH-DPAT was used as the radioligand and nonspecific binding was determined by the addition of 10 μM mianserin.

human 5-HT6 receptor = biological target: T9, human 5-HT6 receptor (Homo sapiens, UniProt P50406); assay: Radioligand binding, human 5-HT6 receptor; conditions: read-out: Affinity at 5-HT6 (Ki ± SEM)
T9 construct: expressed in transfected cells
Experimental: as §1, §6

human 5-HT7 receptor = biological target: T10, human 5-HT7 receptor (Homo sapiens, UniProt P34969); assay: Radioligand competition binding, human 5-HT7 receptor ([3H]-serotonin); conditions: read-out: Affinity at 5-HT7 (Ki ± SEM)
T10 construct: expressed in transfected cells
Experimental: as §1, §2, §3, §5

human 5-HT2B receptor = biological target: T11, human 5-HT2B receptor (Homo sapiens, UniProt P41595); assay: Radioligand binding, human 5-HT2B receptor
T11 construct: expressed in transfected cells
Experimental: as §1, §6

[2] = rat, prior administration of antagonist 1.0 mg/kg, i.p.

T1 sequence (P28566 whole entry): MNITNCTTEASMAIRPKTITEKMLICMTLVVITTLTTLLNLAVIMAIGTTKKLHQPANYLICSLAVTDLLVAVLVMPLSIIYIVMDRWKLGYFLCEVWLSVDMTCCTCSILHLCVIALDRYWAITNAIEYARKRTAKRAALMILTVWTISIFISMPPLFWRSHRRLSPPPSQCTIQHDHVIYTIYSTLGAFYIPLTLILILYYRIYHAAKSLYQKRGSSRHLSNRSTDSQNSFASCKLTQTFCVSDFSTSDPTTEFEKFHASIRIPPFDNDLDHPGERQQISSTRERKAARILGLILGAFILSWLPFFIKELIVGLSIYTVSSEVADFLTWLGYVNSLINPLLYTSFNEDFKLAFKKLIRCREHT
T5 sequence (P28222 whole entry): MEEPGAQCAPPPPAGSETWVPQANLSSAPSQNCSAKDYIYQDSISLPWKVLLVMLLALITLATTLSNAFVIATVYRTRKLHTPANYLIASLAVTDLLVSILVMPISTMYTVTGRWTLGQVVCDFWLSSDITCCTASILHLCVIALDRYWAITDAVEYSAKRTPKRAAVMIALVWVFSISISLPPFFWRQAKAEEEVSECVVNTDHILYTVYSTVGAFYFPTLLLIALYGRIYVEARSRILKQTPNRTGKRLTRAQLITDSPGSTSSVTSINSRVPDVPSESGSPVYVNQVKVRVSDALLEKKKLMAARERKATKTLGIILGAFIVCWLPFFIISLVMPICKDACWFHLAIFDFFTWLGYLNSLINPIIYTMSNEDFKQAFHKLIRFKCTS
T10 sequence (P34969 whole entry): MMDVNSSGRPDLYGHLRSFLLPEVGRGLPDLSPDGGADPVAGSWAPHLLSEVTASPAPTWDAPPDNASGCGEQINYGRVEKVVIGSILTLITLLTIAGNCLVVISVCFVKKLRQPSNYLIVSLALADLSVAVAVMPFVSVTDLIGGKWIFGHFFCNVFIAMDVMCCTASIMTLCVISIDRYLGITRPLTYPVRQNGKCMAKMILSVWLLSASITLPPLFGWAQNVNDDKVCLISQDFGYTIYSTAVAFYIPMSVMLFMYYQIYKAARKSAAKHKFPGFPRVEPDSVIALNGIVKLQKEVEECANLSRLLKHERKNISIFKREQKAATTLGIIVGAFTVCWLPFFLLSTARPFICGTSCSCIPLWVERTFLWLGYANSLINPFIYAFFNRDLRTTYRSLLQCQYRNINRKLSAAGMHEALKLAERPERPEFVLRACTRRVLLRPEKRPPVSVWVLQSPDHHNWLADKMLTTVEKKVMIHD
T4 sequence (P28221 whole entry): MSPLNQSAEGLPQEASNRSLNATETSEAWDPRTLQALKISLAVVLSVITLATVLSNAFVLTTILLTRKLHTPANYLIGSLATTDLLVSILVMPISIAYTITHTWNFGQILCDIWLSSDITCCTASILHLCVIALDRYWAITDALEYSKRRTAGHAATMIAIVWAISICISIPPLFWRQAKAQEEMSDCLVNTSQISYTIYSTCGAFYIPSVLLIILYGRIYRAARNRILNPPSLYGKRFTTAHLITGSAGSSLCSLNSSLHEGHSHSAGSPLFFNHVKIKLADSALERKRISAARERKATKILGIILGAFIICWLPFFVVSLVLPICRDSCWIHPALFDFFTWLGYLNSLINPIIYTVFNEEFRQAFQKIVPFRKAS
T6 sequence (Q13639 whole entry): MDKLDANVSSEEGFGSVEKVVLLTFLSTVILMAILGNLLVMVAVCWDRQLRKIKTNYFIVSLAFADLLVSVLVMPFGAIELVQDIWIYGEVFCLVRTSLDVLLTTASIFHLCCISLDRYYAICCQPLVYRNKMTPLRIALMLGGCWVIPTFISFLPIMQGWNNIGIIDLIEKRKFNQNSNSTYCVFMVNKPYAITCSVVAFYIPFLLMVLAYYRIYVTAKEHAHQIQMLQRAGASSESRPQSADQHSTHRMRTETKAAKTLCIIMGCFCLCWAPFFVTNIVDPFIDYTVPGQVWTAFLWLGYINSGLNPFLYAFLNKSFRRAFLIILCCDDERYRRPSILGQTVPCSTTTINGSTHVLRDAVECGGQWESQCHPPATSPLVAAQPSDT
T3 sequence (P28223 whole entry): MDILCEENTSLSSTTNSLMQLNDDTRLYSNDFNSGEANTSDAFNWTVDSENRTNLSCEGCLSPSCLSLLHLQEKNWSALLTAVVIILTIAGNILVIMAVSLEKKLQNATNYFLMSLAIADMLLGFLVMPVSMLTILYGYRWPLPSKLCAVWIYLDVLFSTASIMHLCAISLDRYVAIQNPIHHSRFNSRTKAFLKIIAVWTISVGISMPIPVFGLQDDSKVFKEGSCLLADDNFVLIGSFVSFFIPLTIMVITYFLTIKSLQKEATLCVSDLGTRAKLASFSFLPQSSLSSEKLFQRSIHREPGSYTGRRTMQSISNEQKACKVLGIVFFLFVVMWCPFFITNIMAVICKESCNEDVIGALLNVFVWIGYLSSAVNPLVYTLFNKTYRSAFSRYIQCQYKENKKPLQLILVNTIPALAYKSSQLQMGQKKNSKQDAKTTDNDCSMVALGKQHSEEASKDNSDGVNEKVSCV
T11 sequence (P41595 whole entry): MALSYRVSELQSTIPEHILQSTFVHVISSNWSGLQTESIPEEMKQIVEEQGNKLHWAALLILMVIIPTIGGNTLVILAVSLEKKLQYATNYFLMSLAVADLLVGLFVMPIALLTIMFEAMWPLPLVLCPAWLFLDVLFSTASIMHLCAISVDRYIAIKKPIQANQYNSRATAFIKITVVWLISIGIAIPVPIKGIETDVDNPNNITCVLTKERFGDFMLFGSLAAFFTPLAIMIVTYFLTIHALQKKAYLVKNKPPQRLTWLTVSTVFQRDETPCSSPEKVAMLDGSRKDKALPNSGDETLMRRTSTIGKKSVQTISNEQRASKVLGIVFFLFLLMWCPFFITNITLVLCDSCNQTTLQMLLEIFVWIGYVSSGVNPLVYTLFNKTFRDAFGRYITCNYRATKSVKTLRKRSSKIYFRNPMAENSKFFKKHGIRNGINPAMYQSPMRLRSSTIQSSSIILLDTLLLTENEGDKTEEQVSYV
T9 sequence (P50406 whole entry): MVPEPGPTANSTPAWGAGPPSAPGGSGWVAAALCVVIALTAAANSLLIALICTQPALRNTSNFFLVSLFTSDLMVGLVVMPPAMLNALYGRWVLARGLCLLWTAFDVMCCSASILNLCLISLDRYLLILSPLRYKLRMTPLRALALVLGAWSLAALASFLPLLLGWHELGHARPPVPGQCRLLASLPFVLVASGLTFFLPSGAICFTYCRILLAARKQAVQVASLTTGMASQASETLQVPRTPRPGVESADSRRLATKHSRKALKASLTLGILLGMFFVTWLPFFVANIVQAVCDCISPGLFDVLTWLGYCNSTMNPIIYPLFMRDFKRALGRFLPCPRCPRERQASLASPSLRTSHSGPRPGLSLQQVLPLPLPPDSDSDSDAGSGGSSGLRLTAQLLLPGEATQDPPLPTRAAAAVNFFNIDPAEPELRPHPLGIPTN

Ki (human 5-HT1E receptor)	Ki (human 5-HT1F receptor)	Ki (human 5-HT2A receptor; human 5-HT2A, read-out: Affinity at 5-HT2A (Ki ± SEM))	Ki (human 5-HT2C receptor; human 5-HT2C, read-out: Affinity at 5-HT2C (Ki ± SEM))	Ki (human 5-HT2B receptor; human 5-HT2B, read-out: Affinity at 5-HT2B (Ki ± SEM))	SMILES	Effect on distension-induced rhythmic contractions of the rat bladder ([1]; i.p.)	Ki (human 5-HT2A receptor)	Blockade of the inhibitory effect of Compound 2 on bladder contractions [1, 2]	Blockade of the inhibitory effect of the GABAB agonist 3-APMPA on bladder contractions [1, 2]	Ki (human 5-HT1D receptor)	Ki (human 5-HT1B receptor)	Ki (human 5-HT4 receptor)	Ki (human 5-HT2C receptor)	Ki (human 5-HT1A receptor)	Ki (human 5-HT6 receptor)	Ki (human 5-HT7 receptor)	Ki (human 5-HT2B receptor)	Effect on bladder contractions (positive control) ([1]; rat, after Compound 3, dose not given)
461 ± 102 nM	3.47 ± 0.08 nM	–	–	–	CN(C)[C@@H]1CCc2c([nH]c3ccc(NC(=O)c4ccc(F)cc4)cc23)C1 [Compound 2, (R)-(+)-6-(4-fluorobenzoyl)amino-2-(dimethyl)amino-1,2,3,4-tetrahydro-9H-carbazole]	inhibited	–	–	–	–	–	–	–	–	–	–	–	–
–	–	–	–	–	CP(=O)(O)CCCN [Compound 3-APMPA, 3-aminopropyl-methyl-phosphinic acid, reference compound]	–	–	–	–	–	–	–	–	–	–	–	–	inhibitory effect
2900 ± 288 nM	7.11 ± 0.76 nM	> 5000 nM	4760 ± 169 nM	4200 ± 219 nM	CN(C)C1CCc2oc3ccc(NC(=O)c4ccncc4)cc3c2C1 (centres unmarked) [Compound 1, N-(N,N-Dimethyl-1,2,3,4-tetrahydro-2-aminodibenzofur-8-yl)-pyridine-4-carboxamide]	inhibited	–	–	–	1780 ± 87 nM	751 ± 68 nM	1870 ± 57 nM	–	367 ± 42 nM	> 5000 nM	> 5000 nM	–	–

SMILES	Ki (human 5-HT1E receptor)	Ki (human 5-HT1F receptor)	Ki (human 5-HT2A receptor; human 5-HT2A, read-out: Affinity at 5-HT2A (Ki ± SEM))	Ki (human 5-HT2C receptor; human 5-HT2C, read-out: Affinity at 5-HT2C (Ki ± SEM))	Ki (human 5-HT2B receptor; human 5-HT2B, read-out: Affinity at 5-HT2B (Ki ± SEM))	Effect on distension-induced rhythmic contractions of the rat bladder ([1]; i.p.)	Ki (human 5-HT2A receptor)	Blockade of the inhibitory effect of Compound 2 on bladder contractions [1, 2]	Blockade of the inhibitory effect of the GABAB agonist 3-APMPA on bladder contractions [1, 2]	Ki (human 5-HT1D receptor)	Ki (human 5-HT1B receptor)	Ki (human 5-HT4 receptor)	Ki (human 5-HT2C receptor)	Ki (human 5-HT1A receptor)	Ki (human 5-HT6 receptor)	Ki (human 5-HT7 receptor)	Ki (human 5-HT2B receptor)	Effect on bladder contractions (positive control) ([1]; rat, after Compound 3, dose not given)
O[C@H](COc1ccc2ccccc2c1)CN1CCC(O)(c2cnc3ccccc3c2)CC1 [Compound 3, 1-((2S)-hydroxy-3-(naphth-2-yloxy)prop-1-yl)-4-hydroxy-4-(quinolin-3-yl)piperidine]	3670 ± 505 nM	4.31 ± 0.53 nM	–	–	–	–	377 ± 94 nM	complete blockade	failed to block	1530 ± 400 nM	1280 ± 144 nM	405 ± 122 nM	1370 ± 341 nM	591 ± 143 nM	4220 ± 399 nM	4410 ± 514 nM	496 ± 36 nM	–
